Results as given in PubChem BioAssay AID248 (DTP/NCI, 2004).
Several values for one entry are separate records, joined by “and”; a condition that tells them apart may be missing. Equal values may be shown once. Toxic doses and inconclusive results are not listed. Cut-off read from the data, not from the text of the source: active = T/C of 150% or more; inactive = T/C below 125%.

System: L1210 leukemia ip in BDF1 mice, survival T/C
Test: NCI In Vivo Anticancer Drug Screen. Data for tumor model L1210 Leukemia (intraperitoneal) in B6D2F1 (BDF1) mice
Settings: endpoint: mean survival time, higher = longer survival
In short: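 Each compound was tested against a transplantable tumor grown in mice. The endpoint was survival, with treated animals benchmarked against vehicle controls as a simple ratio.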

[1] = dose: 100.0 mg/kg/injection, schedule: Q01DX009 (ip), vehicle: saline with Tween-80
[2] = dose: 200.0 mg/kg/injection, schedule: Q01DX009 (ip), vehicle: saline with Tween-80
[3] = dose: 400.0 mg/kg/injection, schedule: Q01DX009 (ip), vehicle: saline with Tween-80
[4] = dose: 100.0 mg/kg/injection, schedule: Q04DX002 (ip), vehicle: saline with Tween-80
[5] = dose: 200.0 mg/kg/injection, schedule: Q04DX002 (ip), vehicle: saline with Tween-80
[6] = dose: 400.0 mg/kg/injection, schedule: Q04DX002 (ip), vehicle: saline with Tween-80
[7] = dose: 100.0 mg/kg/injection, schedule: Q01DX001 (ip), vehicle: saline
[8] = dose: 200.0 mg/kg/injection, schedule: Q01DX001 (ip), vehicle: saline
[9] = dose: 400.0 mg/kg/injection, schedule: Q01DX001 (ip), vehicle: saline
[10] = dose: 100.0 mg/kg/injection, schedule: Q01DX001 (ip), vehicle: Klucel (hydroxypropylcellulose) (HPC)
[11] = dose: 100.0 mg/kg/injection, schedule: Q04DX003 (ip), vehicle: Klucel (hydroxypropylcellulose) (HPC)
[12] = dose: 200.0 mg/kg/injection, schedule: Q01DX001 (ip), vehicle: Klucel (hydroxypropylcellulose) (HPC)
[13] = dose: 200.0 mg/kg/injection, schedule: Q04DX003 (ip), vehicle: Klucel (hydroxypropylcellulose) (HPC)
[14] = dose: 400.0 mg/kg/injection, schedule: Q01DX001 (ip), vehicle: Klucel (hydroxypropylcellulose) (HPC)
[15] = dose: 400.0 mg/kg/injection, schedule: Q04DX003 (ip), vehicle: Klucel (hydroxypropylcellulose) (HPC)
[16] = dose: 100.0 mg/kg/injection, schedule: Q01DX009 (ip), vehicle: Klucel (hydroxypropylcellulose) (HPC)
[17] = dose: 200.0 mg/kg/injection, schedule: Q01DX009 (ip), vehicle: Klucel (hydroxypropylcellulose) (HPC)
[18] = dose: 400.0 mg/kg/injection, schedule: Q01DX009 (ip), vehicle: Klucel (hydroxypropylcellulose) (HPC)
[19] = dose: 100.0 mg/kg/injection, schedule: Q04DX003 (ip), vehicle: saline with Tween-80
[20] = dose: 200.0 mg/kg/injection, schedule: Q04DX003 (ip), vehicle: saline with Tween-80
[21] = dose: 400.0 mg/kg/injection, schedule: Q04DX003 (ip), vehicle: saline with Tween-80

Measured: T/C

CCOC(=O)CNC(=O)Nc1cccc(F)c1
inactive: [1] 103 % of control | [2] 102 % of control | [3] 96 % of control

CCCCC/C(C)=C1\Oc2c(C)c(C)cc(C)c2C1=O
inactive: [4] 100 % of control | [5] 107 % of control | [6] 114 % of control

CCN=C(c1ccc(NC(=O)c2ccc(C(=O)Nc3ccc(C(=NCC)N(CC)C(=O)NC)cc3)cc2)cc1)N(CC)C(=O)NC
inactive: dose: 6.25 mg/kg/injection, schedule: Q01DX015 (ip), vehicle: methylcellulose (MC) 93 % of control | dose: 12.5 mg/kg/injection, schedule: Q01DX015 (ip), vehicle: methylcellulose (MC) 100 % of control

Nc1nc(N)c2[nH]c(CCc3ccccc3)nc2n1
inactive: dose: 25.0 mg/kg/injection, schedule: Q04DX002 (ip), vehicle: Klucel (hydroxypropylcellulose) (HPC) 95 % of control | dose: 50.0 mg/kg/injection, schedule: Q04DX002 (ip), vehicle: Klucel (hydroxypropylcellulose) (HPC) 91 % of control | dose: 100.0 mg/kg/injection, schedule: Q04DX002 (ip), vehicle: Klucel (hydroxypropylcellulose) (HPC) 98 % of control

O=S(CS(=O)c1ccccc1)c1ccccc1 (stereo not drawn)
inactive: [7] 100 % of control | [8] 94 % of control | [9] 100 % of control

O=C(CN1C(=O)c2ccccc2C1=O)NCC(=O)Nc1ccccc1
inactive: dose: 50.0 mg/kg/injection, schedule: Q01DX001 (ip), vehicle: saline 93 % of control | [7] 98 % of control | [8] 104 % of control | [9] 93 % of control

Nc1nccc2snnc12
inactive: [10] 91 % of control | [11] 94 % of control | [12] 89 % of control | [13] 104 % of control | [14] 97 % of control | [15] 100 % of control

Clc1nc(Nc2ccccc2)c2ccccc2n1
inactive: dose: 50.0 mg/kg/injection, schedule: Q01DX009 (ip), vehicle: Klucel (hydroxypropylcellulose) (HPC) 111 % of control | [16] 95 % of control | [17] 107 % of control

CCOc1ccc(NC(=O)CCC(=O)O)cc1
inactive: [16] 91 % of control | [17] 93 % of control | [18] 91 % of control

Nc1nc(-c2ccc(Cl)cc2)c(N=Nc2ccc(Br)cc2)s1
inactive: [19] 104 % of control | [20] 97 % of control | [21] 101 % of control

O=[N+]([O-])c1cccc(N=Cc2ccccc2O)c1
inactive: [10] 93 % of control | [12] 88 % of control | [14] 88 % of control

CCC(=O)Nc1cccc(OC(=O)NC(C)CC)c1 (stereo not drawn)
inactive: [19] 93 % of control | [20] 97 % of control | [21] 92 % of control

C=C1C(=O)OC2C1CCC(C)=C1C(=O)C=C(C)C12 (stereo not drawn)
inactive: dose: 100.0 mg/kg/injection, schedule: Q04DX002 (ip), vehicle: saline 94 % of control | dose: 200.0 mg/kg/injection, schedule: Q04DX002 (ip), vehicle: saline 97 % of control

CCCCC(CCCCCC(CCCC)C1NC(C)Cc2cc(OC)c(OC)cc21)C1NC(C)Cc2cc(OC)c(OC)cc21 (stereo not drawn)
inactive: dose: 25.0 mg/kg/injection, schedule: Q01DX001 (ip), vehicle: Klucel (hydroxypropylcellulose) (HPC) 98 % of control | dose: 50.0 mg/kg/injection, schedule: Q01DX001 (ip), vehicle: Klucel (hydroxypropylcellulose) (HPC) 105 % of control | [10] 90 % of control and 91 % of control

O=N[O-].[Co].[N-]=C=S.[NH2-].[NH2-].[NH2-].[NH2-]
inactive: dose: 6.25 mg/kg/injection, schedule: Q01DX009 (ip), vehicle: saline 106 % of control | dose: 12.5 mg/kg/injection, schedule: Q01DX009 (ip), vehicle: saline 114 % of control | dose: 12.5 mg/kg/injection, schedule: Q04DX003 (ip), vehicle: saline with Tween-80 96 % of control | dose: 13.2 mg/kg/injection, schedule: Q01DX009 (ip), vehicle: saline 104 % of control | dose: 16.0 mg/kg/injection, schedule: Q01DX009 (ip), vehicle: saline 104 % of control | dose: 20.0 mg/kg/injection, schedule: Q01DX009 (ip), vehicle: saline 113 % of control | dose: 25.0 mg/kg/injection, schedule: Q01DX009 (ip), vehicle: saline 104 % of control | dose: 25.0 mg/kg/injection, schedule: Q04DX003 (ip), vehicle: saline with Tween-80 96 % of control | dose: 30.0 mg/kg/injection, schedule: Q01DX009 (ip), vehicle: saline 113 % of control | dose: 35.0 mg/kg/injection, schedule: Q01DX009 (ip), vehicle: saline 104 % of control | dose: 50.0 mg/kg/injection, schedule: Q01DX009 (ip), vehicle: saline 116 % of control | dose: 50.0 mg/kg/injection, schedule: Q04DX003 (ip), vehicle: saline with Tween-80 88 % of control | [19] 105 % of control | [20] 90 % of control

CC12C(=O)C(C)(C(c3ccccc3)=C1c1ccccc1)C1C=CN(S(C)(=O)=O)C=CC12 (stereo not drawn)
inactive: [4] 86 % of control | [5] 88 % of control | [6] 86 % of control

O=C(NCCBr)Nc1ccccc1C(F)(F)F
inactive: [16] 103 % of control | [11] 112 % of control | [17] 105 % of control | [13] 103 % of control | [18] 107 % of control | [15] 93 % of control

ClC1=NC(c2ccccc2)N2C(Cl)C12 (stereo not drawn)
inactive: dose: 100.0 mg/kg/injection, schedule: Q01DX001 (ip), vehicle: saline with Tween-80 103 % of control | [1] 104 % of control | dose: 200.0 mg/kg/injection, schedule: Q01DX001 (ip), vehicle: saline with Tween-80 95 % of control | [2] 98 % of control | dose: 400.0 mg/kg/injection, schedule: Q01DX001 (ip), vehicle: saline with Tween-80 95 % of control | [3] 104 % of control

Cc1nc(N)[nH]c(=O)c1CCCNc1ccc(CCCCC2(CCl)OCCO2)cc1
inactive: dose: 50.0 mg/kg/injection, schedule: Q01DX Z (ip), vehicle: carboxymethylcellulose (CMC) 98 % of control | dose: 100.0 mg/kg/injection, schedule: Q01DX Z (ip), vehicle: carboxymethylcellulose (CMC) 101 % of control | dose: 200.0 mg/kg/injection, schedule: Q01DX Z (ip), vehicle: carboxymethylcellulose (CMC) 95 % of control | dose: 400.0 mg/kg/injection, schedule: Q01DX Z (ip), vehicle: carboxymethylcellulose (CMC) 101 % of control

CCOC(=O)c1ncn(C2OC(CO)C(O)C2O)c1N (stereo not drawn)
inactive: dose: 12.5 mg/kg/injection, schedule: Q01DX005 (ip), vehicle: saline with Tween-80 90 % of control | dose: 25.0 mg/kg/injection, schedule: Q01DX005 (ip), vehicle: saline with Tween-80 100 % of control | dose: 50.0 mg/kg/injection, schedule: Q01DX005 (ip), vehicle: saline with Tween-80 90 % of control | dose: 100.0 mg/kg/injection, schedule: Q01DX005 (ip), vehicle: saline with Tween-80 92 % of control | dose: 200.0 mg/kg/injection, schedule: Q01DX005 (ip), vehicle: saline with Tween-80 93 % of control

CCC(O)C(C)(O)C(=O)O (stereo not drawn)
inactive: dose: 50.0 mg/kg/injection, schedule: Q01DX009 (ip), vehicle: saline with Tween-80 96 % of control | [1] 96 % of control | [2] 92 % of control

O=C(Nc1cccc(Cl)c1)Oc1ccc(Cl)cc1Cl
inactive: [4] 96 % of control | [5] 100 % of control

O=C1C(=O)c2ccccc2C(O)=C1c1ccc(Br)cc1
inactive: dose: 50.0 mg/kg/injection, schedule: Q01DX001 (ip), vehicle: carboxymethylcellulose (CMC) 120 % of control | dose: 100.0 mg/kg/injection, schedule: Q01DX001 (ip), vehicle: carboxymethylcellulose (CMC) 103 % of control

Brc1ccc2c(c1)oc1ccccc12
inactive: [16] 102 % of control | [11] 105 % of control | [17] 97 % of control | [13] 107 % of control | [18] 100 % of control | [15] 91 % of control

COC(=O)/C(C#N)=C\c1ccccc1
inactive: [19] 95 % of control | [20] 101 % of control

O=C1OC2C3c4ccccc4C(c4c3cc(F)c3ccccc43)C2O1 (stereo not drawn)
inactive: [11] 100 % of control | [13] 97 % of control | [15] 95 % of control

Oc1ccc(C(c2ccc(O)c(Cl)c2)c2ccccn2)cc1Cl
inactive: [11] 102 % of control | [13] 98 % of control | [15] 100 % of control
